From EP0304156A1, “Cyclohept b indolealkanoic acids” (MERCK FROSST CANADA INC., priority 1987, dated 1989)
In brackets after ≈: the same amount, converted by molar mass.

Assays:
[1] = test system: Guinea Pig Tracheal Chain; assay: Estimation of pA2 values in guinea pig tracheal chain (contractile agonist U-44069); set-up: species or system guinea pigs; conditions: for Kb: Cavia porcellus, 5 min, guinea pig tracheal chain, agonist U-44069
From the text: Estimation of pA₂ Values in Guinea Pig Tracheal Chain
Male albino Hartley strain guinea pigs (300-350 gm) were sacrificed by a blow to the head and exsanguinated. The trachea was removed, freed of extraneous tissue and sectioned into rings of 1-2 mm thickness. Five rings were tied together in series, ensuring that the tracheal muscle lay in the same vertical plane, and the cartilage of each ring then separated at a point directly opposite the muscle. The chains were suspended under 1 gm resting tension in modified Krebs solution (NaCl, 6.87; NaHCO₃, 2.1; dextrose, 2.1; KCl, 0.32; CaCl₂, 0.28; MgSO₄, 7H₂O, 0.11; KH₂PO₄, 0.16; gm/L: equilibrated with 5% CO₂ in O₂ for 1 hour) containing indomethacin (1.4 x 10-⁵M) to suppress endogenous protaglandin synthesis, Organ bath temperature was maintained at 37°C and 5% CO₂ in O₂ diffused continously. Isometric tension changes were recorded from a Gould-Statham (UTC 2) force displacement transducer connected to a Beckman Type R Dynograph. For assay purposes initial maximal contractions were elicited with a high concentration of the contractile agonist [U-44069, 9.11-dideoxy-9a,11a-epoxymethano PGF2a] and the tissue sub sequently washed at intervals until tension returned to baseline. Agonist dose response curves were obtained using a cumulative-dose schedule (4-8 doses) and the preparations then washed at regular intervals until baseline tension was recorded. After an appropriate interval (1-1.5 hrs) agonist dose response curves were repeated in the presence of antagonist drug concentrations. […] EC₅₀ values were obtained by regression analysis and used to calculate 'apparent' and Schild Plot pA₂ values by the method of Tallarida and Murray 1981.

Human platelets = assay: Inhibition of induced threshold aggregation of human platelets (agonist U44069); format: cell-based; conditions: human platelet rich plasma, aggregating agent U44069; read-out: Inhibition of platelet aggregation (IC50 in mg/ml)
Method: Inhibition of Induced Threshold Aggregation of Human Platelets
Human platelet rich plasma (PRP) is prepared from venous blood of male volunteers who have taken no medication for ten days prior to test. Blood is transferred into plastic centrifuge tubes containing 3.8% Trisodium Citrate in 0.9% NaCl (in a ratio of blood to anticoagulant of 9:1), mixed by gentle inversion, and centrifuged at room temperature for ten minutes at 116 g. The supernatant (PRP) is transferred into plastic tubes. Platelet poor plasma (PPP) is obtained by centrifuging the residual blood cells at 4000 g for ten minutes. PRP is left to stand at least one half hour prior to testing.
Platelet Aggregation is measured using a Payton Aggregometer and Recorder. Following calibration of the instrument, a cuvette containing PRP (225 microliters) is incubated for three minutes at 37°C. Drug vehicle (control), or a drug concentration is then added in a volume of 0.5 microliter. After one minute, the aggregating agent (U44069, 9,11-dideoxy-9a,11a-epoxymethano PGF2a) is added to the cuvette in a volume of 25 microliters. Recording is continued until the maximal response is obtained.
The threshold (approximately 20 - 30% of maximum) aggregation concentration of the agonist to be used is first determined in the presence of the drug vehicle (control). Test compounds are then assayed at 10 or 30 micrograms/ml initially, and if active, are further tested in order to determine the concentration range at which 20-80% of the threshold aggregatory response is inhibited. All drugs are dissolved in dimethylsulfoxide.
The height of the aggregation response (measured in divisions of the recorder paper, 1 division = 2.5 mm) in the presence of the drug is recorded, and calculated as percent inhibition of the mean height of the control threshold responses. The IC₅₀ (drug concentration which inhibits 50% of the aggregatory response) is obtained by regression analysis.

[2] = relative to compound 2 (so in the source)

Row | IC50 (Human platelets) | SMILES | Kb [1] | pA2 lower than that of compound 2 [1, 2] | potency factor corresponding to the pA2 difference [1, 2]
1 | 7.46 µg/mL (≈ 20.1 µM) | O=C(O)C1CCCc2c(n(Cc3ccc(Cl)cc3)c3ccc(F)cc23)C1 (stereo not shown) [Compound 3, 2-Fluoro-5-(p-chlorobenzyl)-5,6,7,8,9,10-hexahydrocyclo hept[b]indole-7-carboxylic acid] | 129 nM | – | –
2 | 0.012 µg/mL (≈ 0.0268 µM) | CS(=O)(=O)c1ccc(Cn2c3c(c4cc(F)cc(F)c42)CCCC(CC(=O)O)C3)cc1 (stereo not shown) [Compound 36, 2,4-Difluoro-5(p-methylsulfonylbenzyl)-5,6,7,8,9,10-hexahydrocyclohept[b]indole-7-acetic acid] | 8.32 nM | – | –
3 | > 30 µg/mL | COc1ccc2c(c1)c1c(n2Cc2ccc(Cl)cc2)CC(C(=O)O)CC1 (stereo not shown) [Compound B, reference compound] | 158 nM | – | –

Continued, compound first:

Row | SMILES | IC50 (Human platelets) | Kb [1] | pA2 lower than that of compound 2 [1, 2] | potency factor corresponding to the pA2 difference [1, 2]
4 | O=C(O)CC1CCCc2c(n(Cc3ccc(Cl)cc3)c3ccc(F)cc23)C1 (stereo not shown) [Compound 1, 2-Fluoro-5-(p-chlorobenzyl)-5,6,7,8,9,10-hexahydrocyclo hept[b]indole-7-acetic acid] | 0.05 µg/mL (≈ 0.13 µM) | 3.16 nM | – | –
5 | O=C(O)CC1CCCCc2c1c1cc(F)ccc1n2Cc1ccc(Cl)cc1 (stereo not shown) [Compound 2, 2-Fluoro-5-(p-chlorobenzyl)-5,6,7,8,9,10-hexahydrocyclo hept[b]indole-10-acetic acid] | 4.5 µg/mL (≈ 11.7 µM) | 42.7 nM | – | –
6 | O=C(O)CC1CCCCc2c1n(Cc1ccc(Cl)cc1)c1ccc(F)cc21 (stereo not shown) [Compound 4, 2-Fluoro-5-(p-chlorobenzyl)-5,6,7,8,9,10-hexahydrocyclohept[b]indole-6-acetic acid] | 0.015 µg/mL (≈ 0.0389 µM) | 1.35 nM | – | –
7 | COc1ccc2c(c1)c1c(n2Cc2ccc(Cl)cc2)CC(CC(=O)O)CC1 (stereo not shown) [Compound A, reference compound] | 3.5 µg/mL (≈ 9.12 µM) | 158 nM | 1.7 log units | 15
